Values of other authors, collected in US20020155976A1, “Cleaning compositions” (Unilever Home & Personal Care USA, Division of Conopco, Inc., priority 2000, published 2002).
Like-named read-outs stand apart in the source and are kept apart here.

[1] = at 20° C., other common materials, by contrast

Water Solubility (grams of solid to form a saturated solution in 100 grams of water at 20° C., highly water-soluble materials) [g/100 g]	Compound	Water Solubility [1] [g/100 g]
	O=BO[O-].[Na+] [Sodium perborate anhydrous]	3.7
	O=P(O)(O)OP(=O)(O)OP(=O)(O)O [Sodium tripolyphosphate anhydrous]	15
>100	NC(N)=O [Urea]	
